Measured values as given in article PMC7437907, “Impact of pH and protein hydrophobicity on norovirus inactivation by heat-denatured lysozyme” (PLoS ONE, 2020).

Experiments:
MNV-1 [1] = assay: MNV-1 inactivation by heat-denatured Lzm peptides (plaque assay); format: cell-based, murine norovirus strain 1; conditions: peptides at same molar concentration as 1.0% (w/v) lysozyme, or DL 1% pH 3.7; heat-denatured 100°C 40 min; MNV-1 approx. 6 log PFU/mL, 60 min, room temperature; mean, n = 3
Protocol: The infectivity of MNV-1 was determined by a plaque assay, as described previously. Briefly, RAW264.7 cells were seeded into 6-well plates (Falcon BD, Franklin Lakes, NJ) at approximately 6 log cells/mL in DMEM containing 5% (v/v) FBS, penicillin (100 U/mL), and streptomycin (100 μg/mL). The plates were incubated at 37°C under 5% CO2 for 18 h. Then, 500 μL/well of samples prepared as described below sections were added to the plates, and the plates were shaken at 20 r/min for 1 h. The inoculated sample was removed, and the wells overlaid with 2 mL of 1.5% (v/v) SeaPlaque agarose (Lonza Japan, Tokyo, Japan) in DMEM containing 5% (v/v) FBS. The plates were incubated at 37°C under 5% CO2 for 48 h. Then, 2 mL of 0.03% (v/v) neutral red solution (Sigma-Aldrich Japan, Tokyo, Japan) was added, and the plates incubated at 37°C under 5% CO2 for 1 h. Thus, visualized plaques were then counted. The synthesized peptides were dissolved in distilled water to the same molarity as 2.0% (w/v) lysozyme, 14,307 of molecular weight, and heated in an oil bath at 100°C for 40 min, then immediately cooled in ice. Next, 120 μL of MNV-1 solution at 6 log pfu/mL was mixed with 120 μL of the prepared heat-denatured peptides, and allowed to stand for 60 min at room temperature. The samples were immediately diluted 10-fold in DMEM and analyzed by the plaque assay, as described above.

interferon β (Ifnb) gene = assay: Gene expression (qPCR) of RAW264.7 macrophages infected with DL-treated MNV-1: Ifnb; format: cell-based; conditions: MNV-1 exposed to 1.0% DL (pH 6.5 before denaturation) for 60 min, MOI 0.01, 24 h, fold-change vs mock by ΔΔCt, n = 3
Protocol: (§1) RAW264.7 cell monolayers (1 × 10^7 cells/mL) in T25 cell flasks (Thermo Fisher Scientific K. K., Tokyo, Japan) were inoculated as described below.
(§2) Live MNV-1 (6 log PFU/mL) was used at a multiplicity of infection (MOI) of 0.01. For some experiments, MNV-1 (6 log PFU/mL) was inactivated by heating at 100°C for 40 min in an oil bath. The heat-treated MNV-1 was then used at MOI of 0.01 (infectivity as determined before heat inactivation). For another set of experiments, 100 μL of MNV-1 (6 log PFU/mL) was mixed with 100 μL of 2.0% of DL (adjusted at pH 6.5 before thermally-denaturation) and allowed to stand at room temperature for 60 min. The mixture was used at MOI of 0.01 (infectivity as before DL treatment).
(§3) The inoculated RAW264.7 cell monolayers were incubated at 37°C under 5% CO2 for 24 h. The cells were then detached by using a cell scraper (Thermo Fisher Scientific) and centrifuged at 300 × g for 5 min. […]
(§4) Total RNA was extracted from inoculated RAW264.7 macrophages using the RNeasy Mini kit (Qiagen, Hilden, Germany), according to the manufacturer’s instructions. […] The resulting cDNA was amplified by quantitative polymerase chain reaction (qPCR) to quantitate the expression levels of interferon β (Ifnb) and interleukin 6 (Il6) genes. […] Fold-changes in mRNA abundance were calculated by the ΔΔCt method, as previously described.

interleukin 6 (Il6) gene = assay: Gene expression (qPCR) of RAW264.7 macrophages infected with DL-treated MNV-1: Il6; format: cell-based; conditions: MNV-1 exposed to 1.0% DL (pH 6.5 before denaturation) for 60 min, MOI 0.01, 24 h, fold-change vs mock by ΔΔCt, n = 3
Protocol: as §1, §2, §3, §4

MNV-1 [2] = conditions: after exposure to DL for 1 h; cited from earlier work
From the text: We have reported that thermally denatured lysozyme (DL) inactivates norovirus. […] Furthermore, DL inactivates norovirus in several foods and is also effective against the hepatitis A virus. However, the conditions for optimal DL norovirus-inactivating effects and the underlying mechanism remain unclear.

[3] = Surface hydrophobicity, protein stability and aggregation assay kit (PSA200K); format: physicochemical; conditions: 1% lysozyme solution, pH 4.5–8.5, DL denatured 100°C 40 min, 1X PSA solution, λEx 550 nm, λEm 610 nm, compared with native lysozyme at same pH, p < 0.01, n = 3
Protocol: Hydrophobicity, thiol group content, and circular dichroism (CD) spectra of the different DL preparations were analyzed. Hydrophobicity was measured by using protein stability and aggregation assay kit (PSA200K, Profoldin, Hudson, MA), according to the manufacturer’s instructions. Sample excitation was measured at 550 nm and emission at 610 nm, using a spectrofluorometer (SH-9000, Corona Electric Co., Ltd., Ibaraki, Japan). Thiol group content was determined in a reaction mixture containing 192 μL of deionized water, 20 mM Tris-HCl at pH 8.0, 2.8 μL of Ellman’s reagent [prepared by dissolving 4 mg of 5,5′-dithiobis-(2-nitrobenzoic acid) powder in 1 mL of Tris buffer at pH 7.0], and 200 μL of 1.0% (w/v) DL. After incubation at room temperature for 1 h in the dark, sample absorbance was measured at 412 nm by using a microplate reader (SH-1000 Lab, Corona Electric Co., Ltd.). CD spectra were acquired using a circular dichroism dispersometer (J-720, JASCO Corporation, Tokyo, Japan). For the analysis, DL preparation was diluted to 100 μg/mL in distilled water, and the spectra acquired in the range of 190 to 250 nm, with a scanning speed of 100 nm/min, a bandwidth of 1 nm, and integration frequency of 10.

MNV-1 [4] = assay: Plaque assay for MNV-1 infectivity after exposure to DL preparations at different pH; format: cell-based, murine norovirus strain 1
Protocol: The infectivity of MNV-1 was determined by a plaque assay, as described previously [9]. Briefly, RAW264.7 cells were seeded into 6-well plates (Falcon BD, Franklin Lakes, NJ) at approximately 6 log cells/mL in DMEM containing 5% (v/v) FBS, penicillin (100 U/mL), and streptomycin (100 μg/mL). The plates were incubated at 37°C under 5% CO2 for 18 h. Then, 500 μL/well of samples prepared as described below sections were added to the plates, and the plates were shaken at 20 r/min for 1 h. The inoculated sample was removed, and the wells overlaid with 2 mL of 1.5% (v/v) SeaPlaque agarose (Lonza Japan, Tokyo, Japan) in DMEM containing 5% (v/v) FBS. The plates were incubated at 37°C under 5% CO2 for 48 h. Then, 2 mL of 0.03% (v/v) neutral red solution (Sigma-Aldrich Japan, Tokyo, Japan) was added, and the plates incubated at 37°C under 5% CO2 for 1 h. Thus, visualized plaques were then counted. […] The samples were then diluted 10-fold in DMEM to stop the virus inactivation reaction and analyzed by the plaque assay, as described above.

[5] = stated in discussion, no reference given; cited from earlier work
From the text: Lysozyme is a positively charged protein with an isoelectric point of 11. We anticipated that in a high-pH solution (pH 6.5–8.5), the intermolecular forces would become stronger, thus, denaturing the protein structure upon heating. In other words, adjusting the pH to a high value would trigger the loosening of the protein structure during thermal denaturation. […] Of ...

Substance	Decrease in MNV-1 infectivity (log reduction) (MNV-1 [1])	other results
RCELAAAMKRHGLDNYRGYSLGNNVCAAKNESNNN [Lzm R2, variant of Lzm 5–39, aromatic amino acids replaced to reduce hydrophobicity]	lost	–
RCNLAAAMKRHGLNNYRGYSLGNWVCAAKFNSNFN [Lzm R3, variant of Lzm 5–39, all acidic amino acids replaced with uncharged amino acids]	2.0 log PFU/mL	–
ITASVNCAKKIVSDGNGMNAWVAWRNRCKGTDVQAWIR [Lzm 88–125, synthetic peptide containing lysozyme residues 88–125]	0.2 log PFU/mL	–
RCELAAAMKRHGLDNYRGYSLGNWVCAAKFESNFN [Lzm 5–39, synthetic peptide of lysozyme residues 5–39]	1.7 log PFU/mL	–
RCELAAAMKREGLDNYRGYSLGNWVCAAEFESNFN [Lzm R1, variant of Lzm 5–39, basic amino acids replaced with acidic amino acids]	lost	–
KVFGRCELAAAMKRHGLDNYRGYSLGNWVCAAKFE [Lzm 1–35, synthetic peptide containing lysozyme residues 1–35]	1.7 log PFU/mL	–
DL: thermally denatured egg white lysozyme, prepared at pH 3.7–8.5	0.9 log PFU/mL	Expression of the Ifnb gene (interferon β (Ifnb) gene): did not increase; Expression of the Il6 gene (interleukin 6 (Il6) gene): did not increase; Average expansion of MNV-1 particle size (MNV-1 [2]): 16.37 nm; Surface hydrophobicity (fluorescence intensity) [3]: significantly higher than that of native lysozyme at any pH; Infectivity of MNV-1 after exposure, trend with pH (MNV-1 [4]; 0.1% and 0.5% DL final, preparations at different pH, exposure 60 min, n = 3): tended to decrease as the pH of DL preparations increased; Infectivity of MNV-1 after exposure, versus control (MNV-1 [4]; 1.0% DL final, DL preparations at pH 4.5–8.5, exposure 1 min, control distilled water, Dunnett's test p < 0.01, n = 3): significantly lower than that of the control
Lysozyme: egg white lysozyme, single-chain polypeptide consisting of 129 amino acids	–	Isoelectric point [5]: 11
